Test results from PMC12752606, “METTL10‐Mediated PIAS3 Methylation Links Purine Metabolism to Gastric Cancer Progression” (Advanced Science, 2025).
Residues, ends and D or L forms follow the SMILES beside them. *: point of attachment. Cbz = O=C(OCc1ccccc1)*

Columns and labels:
[1] = test system: MITF levels in MKN45 cells; assay: Immunoblotting of MITF in METTL10-knockdown cells treated with MG132; format: cell-based; conditions: MG132 5 µM for 5 hours
Description: (§1) Protein extraction from tissues or cells was performed by lysis buffer (20 mM Tris‐HCl (pH 7.5), 150 mM NaCl, 1 mM EDTA, 1 mM EGTA, 2.5 mM sodium pyrophosphate, 1 mM β‐glycerolphosphate, 1% Triton X‐100) supplemented with 1% phenylmethylsulfonyl fluoride (PMSF; Solarbio, P0100) and protease inhibitor cocktail (Apexbio, K1007) and lysed at 4 °C for 60 min, followed by centrifugation at 12000 g for 15 min at 4 °C. For Immunoblotting, the protein concentration was determined using the Pierce BCA Protein Assay Kit (Thermo Fisher Scientific, A55864). The protein samples were denatured by boiling in SDS‐PAGE loading buffer. For immunoprecipitation, antibodies were incubated with Dynabeads Protein G (Thermo, 10004D) at 4 °C for 4 h. The supernatant was then incubated with magnetic beads conjugated with antibodies or anti‐FLAG‐M2 magnetic beads (Sigma–Aldrich, M8823) at 4 °C overnight. Following incubation, the magnetic beads were washed three times with lysis buffer and then boiled in SDS‐PAGE loading buffer. The proteins were separated by sodium dodecyl sulfate polyacrylamide gel electrophoresis (SDS‐PAGE) with One‐Step PAGE Gel Fast Preparation Kit (Vazyme), and then transferred to the PVDF Membrane (Bio‐Rad). After blocking with a protein‐free rapid blocking buffer (Epizyme, PS108P) for 15 min, the membranes were incubated with primary antibodies at 4 °C overnight. […]

[2] = test system: MITF protein levels in HA-PIAS3-overexpressing MKN45 cells; assay: Immunoblotting of MITF in PIAS3-overexpressing cells treated with MG132; format: cell-based; conditions: MG132 5 µM for 5 h
Description: as §1

CC(C)C[C@@H](C=O)NC(=O)[C@H](CC(C)C)NC(=O)[C@H](CC(C)C)NC(=O)OCc1ccccc1 [MG132] (Cbz-Leu-Leu-Leu-aldehyde)
Effect on decrease in MITF levels caused by knockdown of METTL10 [1]: completely eliminated the decrease in MITF levels | PIAS3-mediated degradation of MITF [2]: inhibited
